Laboratory results from patent publication US11085056B2, “Transfection complexes and methods of using the same” (MOLECULAR TRANSFER, INC., priority 2015, dated 2021).

What was measured:
HeLa Cells [1] = assay: Transfection of HeLa cells with DOTMA/DOPE/peptide and eGFP plasmid, fluorescent plate reader; format: cell-based; details: DOTMA/DOPE 1:1 plus peptide with RRRRRRRRRRRR (SEQ ID NO: 109) at n terminus; EF1Alpha eGFP plasmid; 0.01 mL complex; 42 hours
Procedure: (§1) Cells were plated to so that on the day of transfection the cells were 60-70% confluent in 96 well tissue culture plates. A DOMTA/DOPE Lipid solution (1:1 molar ratio) at 2 mg/mL in water were mixed with an equal volume of surface ligand peptides that had the nucleic acid binding moiety RRRRRRRRRRRR (SEQ ID NO: 109) covalently linked to the n terminus of each peptide during peptide synthesis. Peptides were at 2 mg/mL in water. The DOTMA/DOPE and the surface ligand peptide solution the transfection reagent was diluted 1 to 1 (v/v) in water. DOMTA/DOPE/PEPTIDE solutions were added to 0.1 mL of a plasmid DNA solution (EF1Alpha eGFP plasmid) at 5 μg/mL in OptiMEM. Lipofectamine 2000 was obtained from Life Technologies.
(§2) All solutions were at room temperature. A volume of 0.2 mL of a 5 μg/mL solution of DNA was aliquoted into each well of a non-tissue cultured treated plate. 4.0 μL of transfection reagents were added to DNA solutions respectively. The transfection reagent and DNA solution was mixed by pipetting up and down twice. Transfection complexes were formed for 10 minutes. After 10 minutes, 0.01 or 0.02 mL of the transfection complex was added to cells. HuVEC, HeLa, human adult keratinocytes, human primary adult fibroblast, and rat cortical neurons all respectively received 0.01 mL of the tramsfectopm complex. Human skeletal muscle cells, mouse C2C12 cells, Jurkat, and THP-1 cells received 0.02 mL of the transfection complex. Cells were incubated for 42 hours at 37° C. at 5% CO2. Plates were read on a fluorescent plate reader. Cells were also examined visually under a microscope to assess the extent of transfection (in terms of the percent of cells transfected) with a fluorescent microscope. Other modes of analysis, for example quantification with B-galactosidase or luciferase reports plasmids can also be used. […] Surface ligand that caused increase expression of GFP over the lipid DOTMA with no surface ligand were considered to enhance transfection or had higher % cells transfected were considered to enhance transfection. Peptides that gave greater than 2 fold enhancement are noted in bold and could be further optimized by adding different transfection enhancers or could be used with different cationic lipids or polymers.

HuVec Cells = assay: Transfection of HuVec cells with DOTMA/DOPE/peptide and eGFP plasmid, fluorescent plate reader; format: cell-based; details: DOTMA/DOPE 1:1 plus peptide with RRRRRRRRRRRR (SEQ ID NO: 109) at n terminus; EF1Alpha eGFP plasmid; 0.01 mL complex; 42 hours
Procedure: as §1, §2

NL-1 iPS Cells = assay: Transfection of NL-1 iPS cells with DOTMA/DOPE/peptide and eGFP plasmid, fluorescent plate reader; format: cell-based; details: DOTMA/DOPE 1:1 plus peptide with RRRRRRRRRRRR (SEQ ID NO: 109) at n terminus; EF1Alpha eGFP plasmid; 42 hours
Procedure: as §1, §2

C2C12 Cells = assay: Transfection of C2C12 cells with DOTMA/DOPE/peptide and eGFP plasmid, fluorescent plate reader; format: cell-based, mouse; details: DOTMA/DOPE 1:1 plus peptide with RRRRRRRRRRRR (SEQ ID NO: 109) at n terminus; EF1Alpha eGFP plasmid; 0.02 mL complex; 42 hours
Procedure: as §1, §2

Human Fibroblast Cells = assay: Transfection of human fibroblast cells with DOTMA/DOPE/peptide and eGFP plasmid, fluorescent plate reader; format: cell-based; details: DOTMA/DOPE 1:1 plus peptide with RRRRRRRRRRRR (SEQ ID NO: 109) at n terminus; EF1Alpha eGFP plasmid; 0.01 mL complex; 42 hours
Procedure: as §1, §2

Jurkat Cells = assay: Transfection of Jurkat cells with DOTMA/DOPE/peptide and eGFP plasmid, fluorescent plate reader; format: cell-based; details: DOTMA/DOPE 1:1 plus peptide with RRRRRRRRRRRR (SEQ ID NO: 109) at n terminus; EF1Alpha eGFP plasmid; 0.02 mL complex; 42 hours
Procedure: as §1, §2

HeLa Cells [2] = assay: Transfection of HeLa cells with DOTMA/SEQ ID NO: 72/peptide compared with Lipofectamine 2000; format: cell-based; details: fusogenic peptide 0.1 mg/mL
Procedure: as §1, §2
The fusogenic peptide was added to the DOMTA/peptide formulation to achieve a final concentration of 0.1 mg/mL to see if transfection reagents were further enhanced by the addition of a fusogenic peptide and could provide higher transfection efficiency into HeLa cells and expression than the commercially available Lipofectamine 2000.

some examined cell types = assay: Transfection expression and % cells transfected over the no peptide control; format: cell-based; details: on some examined cell types
Procedure: as §1, §2

[3] = 0.1 μL of DOTMA/SEQ ID NO: 72/Peptide in well of a 96 well plate
[4] = 0.2 μL of DOTMA/SEQ ID NO: 72/Peptide in well of a 96 well plate
[5] = 0.3 μL of DOTMA/SEQ ID NO: 72/Peptide in well of a 96 well plate
[6] = 0.4 μL of DOTMA/SEQ ID NO: 72/Peptide in well of a 96 well plate

Substance	RF (Relative Fluorescence) of Transfection of HeLa Cells (HeLa Cells [1])	RF (Relative Fluorescence) of Transfection of HuVec Cells (HuVec Cells)	RF (Relative Fluorescence) of Transfection of NL-1 iPS Cells (NL-1 iPS Cells)	RF (Relative Fluorescence) of Transfection of C2C12 Cells (C2C12 Cells)	RF (Relative Fluorescence) of Transfection of Human Fibroblast Cells (Human Fibroblast Cells)	RF (Relative Fluorescence) of Transfection of Jurkat Cells (Jurkat Cells)	RF (Relative Fluorescence), DOTMA/SEQ ID NO: 72/Peptide, HeLa Cells (HeLa Cells [2]; [3])	RF (Relative Fluorescence), DOTMA/SEQ ID NO: 72/Peptide, HeLa Cells (HeLa Cells [2]; [4])	RF (Relative Fluorescence), DOTMA/SEQ ID NO: 72/Peptide, HeLa Cells (HeLa Cells [2]; [5])	RF (Relative Fluorescence), DOTMA/SEQ ID NO: 72/Peptide, HeLa Cells (HeLa Cells [2]; [6])	transfection expression and the % cells transfected over the no peptide control (some examined cell types)
367 (TDIPPCPHGWISLWK; Peptidic transfection agent) [compound 367]	39008	13354	17545	16207	10036	4365	10427	21411	23001	17529	increased
343 (LFSHAVSSNG; Peptidic transfection agent) [compound 343]	5910	16239	21726	3218	4590	23499	6961	8626	8577	8160	increased
452 (CNYYSNSYSFWLASLNPER; Peptidic transfection agent) [compound 452]	13888	1841	10349	21798	2779	2554	6276	12671	12047	10918	increased
341 (LRAHAVDVNG; Peptidic transfection agent) [compound 341]	4108	15906	20446	2141	2284	18042	6406	7469	8020	7546	increased
379 (TAGSCLRKF; Peptidic transfection agent) [compound 379]	27424	14573	6894	3189	8520	7711	50018	47049	39036	26448	increased
355 (FRHRNRKGY; Peptidic transfection agent) [compound 355]	32628	14810	7910	1900	6821	8132	18362	27990	22367	18289	increased
237 (KNSFMALYLSKG; Peptidic transfection agent) [compound 237]	21288	2302	8632	6491	2184	1501	8986	9753	8015	8288	increased
323 (HQQDLGTAGSCLRKFSTMFLF; Peptidic transfection agent) [compound 323]	14067	12815	21694	7698	4826	2900	15537	16620	10839	9244	increased
358 (GHRGPTGRPGKRGKQGQKGDS; Peptidic transfection agent) [compound 358]	15132	25398	21956	2271	5665	18820	12331	12683	13686	11097	increased
326 (RLVSYSGVLFFLK; Peptidic transfection agent) [compound 326]	18946	4932	9239	8553	3070	3018	6887	9487	10330	9227	increased
